Laboratory results as given in patent US8163909B2, “Substituted hydroxyethyl amine compounds as beta-secretase modulators and methods of use” (Amgen Inc., priority 2007, dated 2012).
Read-outs that look alike come from different tables or passages of the source.

How the values were obtained:
[1] = Microsomal stability assay, human liver microsomes;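 note: pooled human liver microsomes at 0.25 mg/mL with 1 µM compound and NADPH at 37 °C, pH 7.4, for 30 min, unchanged parent quantified by LC-MS/MS against the 0 min sample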
CYP2D6 = CYP2D6 (Homo sapiens, UniProt P10635); experiment: CYP2D6 inhibition assay (bufuralol, pooled human liver microsomes)
[2] = target: Beta Secretase enzyme (BACE) (Homo sapiens, UniProt P56817); experiment: In vitro enzymatic BACE FRET (fluorescence resonance energy transfer) assay; type: biochemical; details: read-out: BACE1 FRET assay;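 note: fluorescence read after 1 h with 50 nM quenched peptide substrate spanning the BACE cleavage site, in pH 4.2 acetate buffer containing 10% DMSO and nonionic detergent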
[3] = tested on: Aβ40 in conditioned medium of cells stably expressing Amyloid Precursor Protein (APP); experiment: In vitro BACE cell-based assay (Aβ40 in conditioned medium, sandwich ELISA); details: Homo sapiens, read-out: HEK cell assay;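 note: compounds added as a dilution series, secreted peptide quantified by europium time-resolved fluorescence readout, potency fitted from percent of control versus compound concentration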
[4] = Microsomal stability assay, rat liver microsomes;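 note: rat liver microsomes (0.25 mg/mL) with about 1 µM compound plus 1 mM NADPH, pH 7.4, 37 °C for 30 min, parent left measured by LC-MS/MS against 0 min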
CYP3A4 (CYP3A) = CYP3A4 (CYP3A) (Homo sapiens, UniProt P08684); experiment: in vitro; details: microsomes, pH 7.4;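 note: inhibition of CYP3A-mediated 1-hydroxymidazolam formation after 10 min incubation with NADPH, quantified by HPLC MS relative to metabolite produced without test compound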
[5] = 2D6 IC50, CYP enzyme inhibition
[6] = BACE enzyme assay, IC50's in uM
[7] = HEK293, cell-based assay, HEK cells, IC50's in uM
[8] = 2D6 IC50 (uM), CYP2D6 inhibition
[9] = HEK293, HEK cell-based assay IC50
[10] = 2D6 IC50 (uM), CYP enzyme inhibition
[11] = HEK293, HEK cell-based assay, IC50's in uM

Sequence of Beta Secretase enzyme (BACE) (P56817 46-501): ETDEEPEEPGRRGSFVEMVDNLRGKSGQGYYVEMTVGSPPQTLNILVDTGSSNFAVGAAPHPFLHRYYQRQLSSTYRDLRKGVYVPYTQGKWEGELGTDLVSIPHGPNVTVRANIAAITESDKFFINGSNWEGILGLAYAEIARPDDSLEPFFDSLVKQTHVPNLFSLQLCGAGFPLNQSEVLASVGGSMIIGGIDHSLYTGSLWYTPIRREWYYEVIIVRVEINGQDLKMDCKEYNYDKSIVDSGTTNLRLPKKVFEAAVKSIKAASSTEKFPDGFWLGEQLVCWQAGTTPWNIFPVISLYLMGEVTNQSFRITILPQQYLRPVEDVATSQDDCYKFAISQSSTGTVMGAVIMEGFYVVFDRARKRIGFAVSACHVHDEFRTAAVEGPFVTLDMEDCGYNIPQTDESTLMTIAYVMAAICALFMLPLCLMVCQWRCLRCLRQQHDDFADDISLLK
Sequence of CYP3A4 (CYP3A) (P08684 2-503): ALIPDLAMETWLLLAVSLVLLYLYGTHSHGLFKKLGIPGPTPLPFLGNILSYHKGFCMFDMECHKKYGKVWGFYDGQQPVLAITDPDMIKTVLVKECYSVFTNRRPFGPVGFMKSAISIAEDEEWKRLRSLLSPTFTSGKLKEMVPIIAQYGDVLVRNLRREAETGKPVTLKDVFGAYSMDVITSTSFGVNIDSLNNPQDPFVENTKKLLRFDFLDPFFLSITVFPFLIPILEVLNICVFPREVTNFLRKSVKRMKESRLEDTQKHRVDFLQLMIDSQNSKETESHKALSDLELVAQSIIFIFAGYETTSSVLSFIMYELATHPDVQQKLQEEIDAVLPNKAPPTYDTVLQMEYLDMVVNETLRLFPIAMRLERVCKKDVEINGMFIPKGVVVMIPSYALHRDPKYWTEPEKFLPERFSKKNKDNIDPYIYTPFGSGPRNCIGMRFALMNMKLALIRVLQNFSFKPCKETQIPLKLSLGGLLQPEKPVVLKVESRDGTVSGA
Sequence of CYP2D6 (P10635 whole entry): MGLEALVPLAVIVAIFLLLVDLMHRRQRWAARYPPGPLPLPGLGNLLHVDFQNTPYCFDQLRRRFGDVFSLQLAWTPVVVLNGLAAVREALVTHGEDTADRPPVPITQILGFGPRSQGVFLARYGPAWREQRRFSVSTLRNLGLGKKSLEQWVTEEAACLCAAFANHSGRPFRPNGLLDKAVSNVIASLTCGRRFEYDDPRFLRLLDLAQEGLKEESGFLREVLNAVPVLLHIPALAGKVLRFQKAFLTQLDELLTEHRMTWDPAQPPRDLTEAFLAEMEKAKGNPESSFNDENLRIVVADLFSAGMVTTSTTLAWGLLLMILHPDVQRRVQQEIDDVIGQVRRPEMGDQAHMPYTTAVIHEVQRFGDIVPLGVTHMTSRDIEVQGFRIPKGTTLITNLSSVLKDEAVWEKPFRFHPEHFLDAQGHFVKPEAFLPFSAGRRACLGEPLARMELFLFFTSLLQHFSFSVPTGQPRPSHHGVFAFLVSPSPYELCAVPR

Compound: CCOCC(=O)N[C@@H](Cc1cc(F)cc(-c2nccs2)c1)[C@H](O)CN[C@H]1CC2(CCC2)Oc2ncc(CC(C)(C)C)cc21 [compound 862, N-((1S,2R)-3-(((4′S)-6′-(2,2-dimethylpropyl)-3′,4′-dihydrospiro[cyclobutane-1,2′-pyrano[2,3-b]pyridin]-4′-yl)amino)-1-(3-fluoro-5-(1,3-thiazol-2-yl)benzyl)-2-hydroxypropyl)-2-ethoxyacetamide]
- HLM ([1]; human liver microsomal data): 43 µL/min/mg
- IC50 (CYP2D6; [5]): 0.65 µM
- IC50 [2, 6]: 0.004 µM
- IC50 [3, 7]: 0.009 µM
- RLM ([4]; rat liver microsomal data): 64 µL/min/mg
- IC50 (CYP3A4 (CYP3A)): 300 nM

Compound: CO[C@H](C)C(=O)N[C@@H](Cc1cc(F)cc(-c2nccs2)c1)[C@H](O)CN[C@H]1CC2(CCC2)Oc2ncc(CC(C)(C)C)cc21 [compound 738, (2R)-N-((1S,2R)-3-(((4′S)-6′-(2,2-dimethylpropyl)-3′,4′-dihydrospiro[cyclobutane-1,2′-pyrano[2,3-b]pyridin]-4′-yl)amino)-1-(3-fluoro-5-(1,3-thiazol-2-yl)benzyl)-2-hydroxypropyl)-2-methoxypropanamide]
- HLM ([1]; human liver microsomes): 50 µL/min/mg
- IC50 (CYP2D6; [8]): 0.6 µM
- IC50 ([2]; BACE enzyme assay IC50): 0.008 µM
- IC50 [3, 9]: 0.01 µM
- RLM ([4]; rat liver microsomes): 59 µL/min/mg
- IC50 (CYP3A4 (CYP3A)): ≤ 30 nM

Compound: CO[C@H](C)C(=O)N[C@@H](Cc1ccc2c(c1)OCO2)[C@H](O)CN[C@@H]1c2cc(CC(C)(C)C)cnc2OC2(CCC2)[C@@H]1F [compound 554]
- HLM ([1]; human liver microsomal data): 63 µL/min/mg
- IC50 (CYP2D6; [10]): 6.5 µM
- IC50 ([2]; BACE enzyme assay): 0.057 µM
- IC50 ([3]; HEK293, HEK cells): 1.02 µM
- RLM ([4]; rat liver microsomal data): 173 µL/min/mg
- IC50 (CYP3A4 (CYP3A)): 200 nM

Compound: CC(C)(C)Cc1cnc2c(c1)[C@@H](NC[C@@H](O)[C@H](Cc1cc(F)cc(-c3nccs3)c1)NC(=O)C1(C)CC1)CC1(CCC1)O2 [compound 876]
- HLM ([1]; human liver microsomal data): 64 µL/min/mg
- IC50 (CYP2D6; [5]): 0.3 µM
- IC50 [2, 6]: 0.036 µM
- IC50 [3, 7]: 0.132 µM
- RLM ([4]; rat liver microsomal data): 91 µL/min/mg
- IC50 (CYP3A4 (CYP3A)): 200 nM

Compound: CC(C)(C)Cc1cnc2c(c1)[C@@H](NC[C@@H](O)[C@H](Cc1ccc3c(c1)OCO3)NC(=O)[C@H]1CCC(=O)C1)CC1(CCC1)O2 [compound 450]
- HLM ([1]; human liver microsomal data): 76 µL/min/mg
- IC50 (CYP2D6; [5]): 8.6 µM
- IC50 ([2]; Table 2): 0.15 µM
- IC50 ([3]; HEK293, Table 2, HEK cells): 0.183 µM
- RLM ([4]; rat liver microsomal data): 170 µL/min/mg
- IC50 (CYP3A4 (CYP3A)): 400 nM

Compound: COCC(=O)N[C@@H](Cc1ccc(F)c(-c2nccs2)c1)[C@H](O)CN[C@H]1CC2(CCC2)Oc2ncc(CC(C)C)cc21 [compound 727]
- HLM ([1]; human liver microsomes): 45 µL/min/mg
- IC50 (CYP2D6; [8]): 0.5 µM
- IC50 ([2]; BACE enzyme assay IC50): 0.011 µM
- IC50 [3, 9]: 0.023 µM
- RLM ([4]; rat liver microsomes): 74 µL/min/mg
- IC50 (CYP3A4 (CYP3A)): ≤ 30 nM

Compound: CC(=O)N[C@@H](Cc1cc(F)cc(F)c1)[C@H](O)CN[C@H]1CC2(CCC2)Oc2c1cc(CC(C)(C)C)nc2-n1ccnc1 [compound 465]
- HLM ([1]; human liver microsomal data): 18.5 µL/min/mg
- IC50 (CYP2D6; [5]): 1 µM
- IC50 ([2]; Table 2): 0.019 µM
- IC50 ([3]; HEK293, Table 2, HEK cells): 0.032 µM
- RLM ([4]; rat liver microsomal data): 51.5 µL/min/mg
- IC50 (CYP3A4 (CYP3A)): 100 nM

Compound: CC(C)Cc1cnc2c(c1)[C@@H](NC[C@H](O)[C@@H](Cc1cccc(-c3nccs3)c1)NC(=O)[C@H]1CCCO1)CC1(CCC1)O2 [compound 795]
- HLM ([1]; human liver microsomal data): 127 µL/min/mg
- IC50 (CYP2D6; [10]): 0.6 µM
- IC50 [2, 6]: 0.286 µM
- IC50 [3, 11]: 0.206 µM
- RLM ([4]; rat liver microsomal data): 64 µL/min/mg
- IC50 (CYP3A4 (CYP3A)): 200 nM

Compound: CO[C@H](C)C(=O)N[C@@H](Cc1ccc(F)cc1)[C@H](O)CN[C@H]1CC2(CCC2)Oc2c1cc(CC(C)(C)C)nc2-c1ccncc1 [compound 527]
- HLM ([1]; human liver microsomal data): 33 µL/min/mg
- IC50 (CYP2D6; [10]): 0.6 µM
- IC50 ([2]; BACE enzyme assay): 0.222 µM
- IC50 ([3]; HEK293, HEK cells): 1.95 µM
- RLM ([4]; rat liver microsomal data): 108 µL/min/mg
- IC50 (CYP3A4 (CYP3A)): 100 nM

Compound: COCC(=O)N[C@@H](Cc1ccc(F)cc1)[C@H](O)CN[C@H]1CC2(CCC2)Oc2ncc(C(F)(F)C(C)(C)C)cc21 [compound 569]
- HLM ([1]; human liver microsomal data): 238 µL/min/mg
- IC50 (CYP2D6; [10]): ≥ 27 µM
- IC50 ([2]; BACE enzyme assay): 0.165 µM
- IC50 ([3]; HEK293, HEK cells): 0.992 µM
- RLM ([4]; rat liver microsomal data): 423 µL/min/mg
- IC50 (CYP3A4 (CYP3A)): 700 nM

Compound: COCC(=O)N[C@@H](Cc1cccc(-c2nccs2)c1)[C@H](O)CN[C@H]1CC2(CCC2)Oc2ncc(CC(C)C)cc21 [Example 757, N-((1S,2R)-2-hydroxy-3-(((4′S)-6′-(2-methylpropyl)-3′,4′-dihydrospiro[cyclobutane-1,2′-pyrano[2,3-b]pyridin]-4′-yl)amino)-1-(3-(1,3-thiazol-2-yl)benzyl)propyl)-2-methoxyacetamide]
- HLM ([1]; human liver microsomal data): 60 µL/min/mg
- IC50 (CYP2D6; [10]): 0.45 µM
- IC50 [2, 6]: 0.007 µM
- IC50 [3, 11]: 0.018 µM
- RLM ([4]; rat liver microsomal data): 60 µL/min/mg
- IC50 (CYP3A4 (CYP3A)): 250 nM

Compound: CC(=O)N[C@@H](Cc1cc(F)cc(F)c1)[C@H](O)CN[C@H]1CC2(CCC2)Oc2c1cc(CC(C)(C)C)nc2-c1cscn1 [compound 510]
- HLM ([1]; human liver microsomal data): 380 µL/min/mg
- IC50 (CYP2D6; [10]): 10.3 µM
- IC50 ([2]; BACE enzyme assay): 0.008 µM
- IC50 ([3]; HEK293, HEK cells): 0.017 µM
- RLM ([4]; rat liver microsomal data): 358 µL/min/mg
- IC50 (CYP3A4 (CYP3A)): 1100 nM
